The source of these data is patent US8088806B2 (Achillion Pharmaceuticals, Inc., priority 2005, dated 2012).

pEC50: −log10 of the molar value.

The test system of the first assay is HCV replicon. The assay is described as follows: Replicon based assay of HCV replication inhibition (NPT ELISA). In kind it is cell-based, Hepatitis C virus. To be noted: Hepatitis C virus, Huh-7, 72 h, Table I; Huh-7 HCV replicon-containing cells, three days; read-out: Activity. In outline: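 NPT (neomycin phosphotransferase) content, proportional to replicon replication, quantified by capture ELISA on day four. Before that, replicon-bearing Huh-7 cells in G418-free screening medium were exposed three days at 37° C to compound, typically six doses from 10 to 0.03 micromolar, with equal DMSO across wells.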
(A replicon is a self-replicating genome or part of one, used to study replication in cells.)
For `CCCCCOc1ccc(NC(=O)c2nc(-c3cccnc3)cs2)cc1C(F)(F)F` [compound 112, N-(3-(trifluoromethyl)-4-(pentyloxy)phenyl)-4-(pyridin-3-yl)thiazole-2-carboxamide], the pEC50 was below 5.00.
The same measure, in the same setting: then `CCCCCOc1ccc(Nc2nc(-c3cccnc3)cs2)cc1` [compound 85, N-(4-(pentyloxy)phenyl)-4-(pyridin-3-yl)thiazol-2-amine], with above 6.00; and `CCCCCOc1ccc(Nc2nc(C(=O)Nc3ccc(Cl)cc3)cs2)cc1C(F)(F)F` [compound 11, 2-(3-(trifluoromethyl)-4-(pentyloxy)phenylamino)-N-(4-chlorophenyl)thiazole-4-carboxamide], with below 5.00.

Still in this assay, the particulars now being: Hepatitis C virus, Huh-7, 72 h, Table III; Huh-7 HCV replicon-containing cells, three days; read-out: Activity.
With `FC(F)(F)c1cc(Nc2nc(-c3cnccn3)cs2)ccc1OC1CCCC1` [compound 606, N-(4-(cyclopentyloxy)-3-(trifluoromethyl)phenyl)-4-(pyrazin-2-yl)thiazol-2-amine], the pEC50 was above 6.00.
`CCCCCCCCOc1ccc(Nc2nc(-c3ccc(C(F)(F)F)cn3)cs2)cc1C(F)(F)F` [compound 709, N-(3-(trifluoromethyl)-4-(octyloxy)phenyl)-4-(5-(trifluoromethyl)pyridin-2-yl)thiazol-2-amine]: the pEC50 was above 6.00.
On the same count and under the same terms, the figure for `CCCCCOc1ccc(Nc2nc(-c3ccc4c(c3)OCO4)cs2)cc1C(F)(F)F` [compound 534, 4-(benzo[d][1,3]dioxol-6-yl)-N-(3-(trifluoromethyl)-4-(pentyloxy)phenyl)thiazol-2-amine] is above 6.00; for `CCCCCCCCOc1ccc(Nc2nc(-c3cnc(N)c(C)c3)cs2)cc1C(F)(F)F` [compound 687, 5-(2-(3-(trifluoromethyl)-4-(octyloxy)phenylamino)thiazol-4-yl)-3-methylpyridin-2-amine] it is above 6.00.
`CCCC/C=C\CCOc1ccc(Nc2nc(-c3ccc(C)nc3)cs2)cc1C(F)(F)F` [compound 532, N-(4-((Z)-oct-3-enyloxy)-3-(trifluoromethyl)phenyl)-4-(6-methylpyridin-3-yl)thiazol-2-amine]: the pEC50 was above 6.00.
The same measure, in the same setting: the figure for `CCCCCCCCOc1ccc(Nc2nc(O)cs2)cc1C(F)(F)F` [compound 650, 2-(3-(trifluoromethyl)-4-(octyloxy)phenylamino)thiazol-4-ol] is 5.00 to 6.00.
The same measure, in the same setting: the figure for `CCCCCCCCOc1ccc(Nc2nc(Cc3ccc(F)cc3)cs2)cc1` [compound 628, 4-(4-fluorobenzyl)-N-(4-(octyloxy)phenyl)thiazol-2-amine] is 5.00 to 6.00; for `CCCCCCCc1ccc(Nc2nc(-c3ccc(-c4ccccn4)s3)cs2)cc1` [compound 564, N-(4-heptylphenyl)-4-(5-(pyridin-2-yl)thiophen-2-yl)thiazol-2-amine] it is above 6.00; for `CCCCCCCCOc1ccc(Nc2nc(-c3cccc4cccnc34)cs2)cc1C(F)(F)F` [compound 708, N-(3-(trifluoromethyl)-4-(octyloxy)phenyl)-4-(quinolin-8-yl)thiazol-2-amine] it is above 6.00.
On the same count and under the same terms, then `CN1CCN(CCCOc2ccc(Nc3nc(-c4cccnc4)cs3)cc2C(F)(F)F)CC1` [compound 694, N-(4-(3-(4-methylpiperazin-1-yl)propoxy)-3-(trifluoromethyl)phenyl)-4-(pyridin-3-yl)thiazol-2-amine], with 5.00 to 6.00; and `CCCCCOc1ccc(Nc2nc(Cc3ccc(F)cc3)cs2)cc1F` [compound 630, 4-(4-fluorobenzyl)-N-(3-fluoro-4-(pentyloxy)phenyl)thiazol-2-amine], with below 5.00.
With `CCCCCCCc1ccc(Nc2nc(-c3ccc(O)c(C(N)=O)c3)cs2)cc1` [compound 557, 5-(2-(4-heptylphenylamino)thiazol-4-yl)-2-hydroxybenzamide], the pEC50 is above 6.00.
On to `Fc1cc(Nc2nc(-c3ccc(-n4ccnc4)cc3)cs2)ccc1OCC1CCCCC1` [compound 719, 4-(4-(1H-imidazol-1-yl)phenyl)-N-(4-(cyclohexylmethoxy)-3-fluorophenyl)thiazol-2-amine], for which the pEC50 is above 6.00.

The same assay, now with this note: Hepatitis C virus, replicon based assay of HCV replication inhibition; Table II; read-out: Activity.
Turning to `CN1CCC[C@H](c2csc(Nc3ccc(Oc4ccccc4)cc3)n2)C1` [compound 236, (S)-4-(1-methylpiperidin-3-yl)-N-(4-phenoxyphenyl)thiazol-2-amine], the pEC50 was 5.00 to 6.00.
Regarding `CCCCCOc1ccc(Nc2nc(-c3ccc(-c4ccccn4)s3)cs2)cc1C(F)(F)F` [compound 411, N-(3-(trifluoromethyl)-4-(pentyloxy)phenyl)-4-(5-(pyridin-2-yl)thiophen-2-yl)thiazol-2-amine], the pEC50 is above 6.00.
On the same count and under the same terms, the figure for `CCCCCCCOc1ccc(Nc2nc(-c3ccc(C)nc3)cs2)cc1` [compound 369, N-(4-(heptyloxy)phenyl)-4-(6-methylpyridin-3-yl)thiazol-2-amine] is above 6.00.
`FC(F)(F)c1cc(Nc2nc(-c3cccnc3)cs2)ccc1OC1CCCC1` [compound 238, N-(4-(cyclopentyloxy)-3-(trifluoromethyl)phenyl)-4-(pyridin-3-yl)thiazol-2-amine]: the pEC50 was above 6.00.
Regarding `NC(=O)c1cc(-c2csc(Nc3ccc(OC4CCCC4)c(C(F)(F)F)c3)n2)ccc1O` [compound 254, 5-(2-(4-(cyclopentyloxy)-3-(trifluoromethyl)phenyl-amino)thiazol-4-yl)-2-hydroxybenzamide], the pEC50 was above 6.00.
The same measure, in the same setting: the figure for `CCCCCCCCN(C)c1ccc(Nc2nc(-c3ccc(F)nc3)cs2)cc1C(F)(F)F` [compound 489, 2-(trifluoromethyl)-N^4-(4-(6-fluoropyridin-3-yl)thiazol-2-yl)-N^1-methyl-N^1-octylbenzene-1,4-diamine] is above 6.00; for `CN1CCC[C@H](c2csc(Nc3cccc(OCc4ccccc4)c3)n2)C1` [compound 237, (S)-N-(3-(benzyloxy)phenyl)-4-(1-methylpiperidin-3-yl)thiazol-2-amine] it is 5.00 to 6.00.
Still for that read-out and setting: the figure for `CCCCCCCCOc1ccc(Nc2nc(-c3ccccc3OC)cs2)cc1` [compound 376, 4-(2-methoxyphenyl)-N-(4-(octyloxy)phenyl)thiazol-2-amine] is above 6.00; for `CCCCCCCCOc1ccc(Nc2nc(CC)cs2)cc1` [compound 391, 4-ethyl-N-(4-(octyloxy)phenyl)thiazol-2-amine] it is above 6.00; for `CCCCCOc1ccc(Nc2nc(-c3ccc(N4CCCC4)nc3)cs2)cc1C(F)(F)F` [compound 450, N-(3-(trifluoromethyl)-4-(pentyloxy)phenyl)-4-(6-(pyrrolidin-1-yl)pyridin-3-yl)thiazol-2-amine] it is above 6.00.
The same measure, in the same setting: the figure for `CCCCCCCOc1ccc(Nc2nc(-c3ccc(Br)cc3)cs2)cc1` [compound 394, 4-(4-bromophenyl)-N-(4-(heptyloxy)phenyl)thiazol-2-amine] is above 6.00.
For `CCCCCOc1ccc(Nc2nc(-c3cc(OC)ccc3OC)cs2)cc1C(F)(F)F` [compound 431, N-(3-(trifluoromethyl)-4-(pentyloxy)phenyl)-4-(2,5-dimethoxyphenyl)thiazol-2-amine], the pEC50 is 5.00 to 6.00.
Consider `CCCCCCCOc1ccc(Nc2nc(-c3ccc(C(=O)N(C)C)nc3)cs2)cc1` [compound 457, 5-(2-(4-(heptyloxy)phenylamino)thia-zol-4-yl)-N,N-dimethylpyridine-2-carboxamide], for which the pEC50 was 5.00 to 6.00.
For the molecule `Cc1sc(Nc2cccnc2)nc1-c1ccc(CC(=O)O)cc1` [compound 344, 2-(4-(5-methyl-2-(pyridin-3-ylamino)thiazol-4-yl)phenyl)acetic acid], the pEC50 is below 5.00.
Same read-out and setting: the figure for `Cc1sc(NC(=O)c2ccccc2)nc1-c1ccc(F)cc1` [compound 350, N-(4-(4-fluorophenyl)-5-methylthiazol-2-yl)benzamide] is below 5.00.

The assay is the same for the next values; noted with them: Hepatitis C virus, replicon based assay of HCV replication inhibition; Table IV; read-out: Activity.
With `FC(F)(F)c1ccc(-c2cc(Nc3nc(-c4cccnc4)cs3)on2)cc1` [compound 793, 3-(4-(trifluoromethyl)phenyl)-N-(4-(pyridin-3-yl)thiazol-2-yl)isoxazol-5-amine], the pEC50 was below 5.00.
With `CCCCCCCCOc1ccc(Nc2nc(-c3ccc(O)cc3O)cs2)cc1C(F)(F)F` [compound 782, 4-(2-(3-(trifluoromethyl)-4-(octyloxy)phenylamino)thiazol-4-yl)benzene-1,3-diol], the pEC50 was above 6.00.
The same measure, in the same setting: the figure for `O=C(O)Cc1ccc(Nc2nc(-c3cccnc3)cs2)cc1` [compound 909, 2-(4-(4-(pyridin-3-yl)thiazol-2-ylamino)phenyl)acetic acid] is below 5.00.
For the molecule `O=C(O)Cc1ccc(-c2csc(Nc3ccc(OCCCc4ccco4)c(C(F)(F)F)c3)n2)s1` [compound 943, 2-(5-(2-(4-(3-(furan-2-yl)propoxy)-3-(trifluoromethyl)phenylamino)thiazol-4-yl)thiophen-2-yl)acetic acid], the pEC50 is above 6.00.
Still for that read-out and setting: the figure for `Cc1c(Nc2nc(-c3cccnc3)cs2)cccc1C(F)(F)F` [compound 899, N-(3-(trifluoromethyl)-2-methylphenyl)-4-(pyridin-3-yl)thiazol-2-amine] is 5.00 to 6.00.
The same measure, in the same setting: the figure for `Cc1nc2cc(Nc3nc(-c4cccnc4)cs3)ccc2s1` [compound 745, 2-methy1-N-(4-(pyridin-3-yl)thiazol-2-yl)benzo[d]thiazol-5-amine] is below 5.00.
The same measure, in the same setting: then `CCCCCCCS(=O)(=O)CCc1ccc(Nc2nc(-c3cccnc3)cs2)cc1` [compound 953, N-(4-(2-(heptylsulfonyl)ethyl)phenyl)-4-(pyridin-3-yl)thiazol-2-amine], with 5.00 to 6.00; and `c1ccc(-c2ccc(Nc3nc(-c4cccnc4)cs3)cn2)cc1` [compound 756, 6-phenyl-N-(4-(pyridin-3-yl)thiazol-2-yl)pyridin-3-amine], with 5.00 to 6.00.
In the case of `O=C(O)c1ccc(Oc2ccc(Nc3nc(-c4cccnc4)cs3)cc2)cc1` [compound 904, 4-(4-(4-(pyridin-3-yl)thiazol-2-ylamino)phenoxy)benzoic acid], the pEC50 is above 6.00.
